Patent US20090325906A1, “Methods and compositions for therapeutic treatment” (priority 2008, published 2009)
Read-outs that look alike come from different tables or passages of the source.

Columns and labels:
[1] = test system: LEW responder splenocytes (lymphocyte proliferation); assay: Mixed lymphocyte reaction (MLR) with spleen cells of treated Lewis rats; format: cell-based, rat
Description: Animals: 8-9 weeks-old Lewis and Brown Norway male rats are obtained from Charles River Laboratories. General procedures for animal care and housing are in accordance with the National Research Council (NRC) Guide for the Care and Use of Laboratory Animals (1996) and the Animal Welfare Standards incorporated in 9 CFR Part 3, 1991.
(§1) Treatment: Lewis rats are treated with different single doses of LNS 0694 i.p. 30 minutes prior to single i.v. injections of tacrolimus at a concentration of 1 mg/kg as described in the table below.
(§2) Spleens are collected at 4 hr after administration of FK506 for use in the in vitro mixed lymphocyte reaction (MLR) and Con A assays. In addition to treated Lewis rats, spleens are collected from 5 Brown Norway rats (not treated) which are used for the in vitro assay.
Mixed lymphocyte reactions: A single cell suspension of the spleen of each rat on test (LEW, responder) is prepared with a Dounce homogenizer and wash-medium. The cell suspension is depleted of red blood cells (treatment with NH4CL/Tris buffer) and washed twice with wash medium before resuspending in complete medium (CM; RPMI 1640 with 5% heat-inactivated (30 minutes at 56° C.) normal rat serum (from Lewis rats), 2 mM GlutaMAX, 100 U/ml penicillin and 100 μg/ml streptomycin mixture, and 55 μM 2-mercaptoethanol). A single cell suspension of splenocytes from five Brown Norway rats (BN, stimulators) is prepared with the same method. The BN splenocytes are pooled and irradiated with 1,500-2,000 rad (cesium source) before use.
Varying numbers of responder cells are mixed with a constant number of stimulators (105) in 96-well, U-bottom cell culture plates to give a final responder:stimulator (R:S) ratio of 10:1, 5:1, 1:1 and 0.5:1 in 200 μl CM. Control wells for each cell suspension contained 10^5 responders alone in medium and 105 pooled, irradiated stimulators alone in medium (separate wells). For a positive proliferative response, each responder (10^5) is treated with 2.5 μg/ml Con A. […]
The results of the MLR assays [thymidine incorporation as counts per minute (CPM)] are expressed as mean±SD.

[2] = test system: mouse spleen cells; assay: In vitro LPS assay on spleen cells; format: cell-based; details: high ([…]10^6 cells/well) and low (8×10^5 cells/well) cell concentration
[3] = test system: heart transplant patients; details: target range 5-15 ng/mL, tacrolimus treatment arm, European study; cited from earlier work
[4] = test system: islet; details: 0.01 μmol/liter, after 7-d incubation; cited from earlier work
[5] = test system: renal transplant recipients; details: cited from earlier work
[6] = test system: murine or human T cells; details: disrupting calcium signaling events that lead to lymphokine production; cited from earlier work
[7] = test system: liver transplant patients; details: two liver transplant trials; 514 patients tacrolimus and steroids, 515 patients CBIR; cited from earlier work
[8] = test system: rats; format: in vivo
Description: Animals: 8-9 weeks-old rats are used. General procedures for animal care and housing are in accordance with the National Research Council (NRC) Guide for the Care and Use of Laboratory Animals (1996) and the Animal Welfare Standards incorporated in 9 CFR Part 3, 1991.
Treatment: Rats are treated i.v with FK506 and i.p. with Quercetin. Rats receive daily administrations containing either 0.5 mg/kg or 2 mg/kg of FK506 approximately one hour after the start of the light cycle. Rats are treated 30 minutes prior to FK506 treatment with quercetin at three different concentrations, 10 mg/kg, 25 mg/kg or 200 mg/kg. Subsets of 5 rats per group are used for blood sampling at each time point. Blood is collected for glucose measurement on days 0, 5, 9, and 14.

[9] = test system: mouse spleen cells; assay: In vitro Con A assay on spleen cells; format: cell-based; details: for response of spleen cells to Con A (proliferation): high ([…]10^6 cells/well) and low (8×10^5 cells/well) cell concentration
Description: (§3) Animals: 8-9 weeks-old Lewis and Brown Norway male rats are obtained from Charles River Laboratories. General procedures for animal care and housing is in accordance with the National Research Council (NRC) Guide for the Care and Use of Laboratory Animals (1996) and the Animal Welfare Standards incorporated in 9 CFR Part 3, 1991.
Spleens are collected for use in in vitro Con A and LPS assays.
Spleen cells are treated with Con A in the presence of vehicle, tacrolimus, quercetin or two different concentrations of tacrolimus (10^−8.2 and 10^−8.5 M) and increasing doses of quercetin at a high cell concentration (FIG. 13) or at a low cell concentration (FIG. 14). […] There is no significance difference between the effect of quercetin on tacrolimus induced cell suppression in vitro at the different concentrations used for quercetin. The same results are observed in cultures with low cell concentration (FIG. 14).

[10] = quercetin or a quercetin derivative; cited from earlier work
[11] = Solubility of quercetin with sulfobutylether-7-β-cyclodextrin and meglumine; format: physicochemical; details: Captisol 30% w/v, Meglumine 44 mM, room temperature, about 10 minutes, excess solids removed
Description: Sulfobutylether-7-β-cyclodextrin (Captisol™) is dissolved in water to form a solution at 30% w/v. To the Captisol solution is added Meglumine at a concentration of 44 mM and […] at a concentration of about 20 mg/ml. The solution is stirred at room temperature for about 10 minutes. The solution is separated from any excess solids (e.g. by filtration). The concentration of quercetin in the solution is about 9.2 mg/mL.

[12] = cited from earlier work
[13] = Sulfobutylether-7-β-cyclodextrin quercetin aqueous composition: concentration and storage stability; format: physicochemical; details: 10 mg/ml in water with sulfobutylether-7-β-cyclodextrin
Description: The flask is placed in an ice bath. When all of the Captisol is dissolved, 1.24 g of quercetin (Micron Technologies) (equivalent to about 1 g of anhydrous quercetin) is added with stirring. Into the flask, 12 ml of 1 N sodium hydroxide is added over about 5 to 10 minutes. […] Into the flask is then added 10.5 ml of hydrochloric acid over 5 to 10 minutes at a slow enough rate to avoid precipitation. During the addition of the sodium hydroxide and the hydrochloric acid, the temperature is maintained at less than 20° C. DI water is then added to give total volume of 100 ml. This procedure results in a sulfobutylether-7-β-cyclodextrin-quercetin aqueous composition at a concentration of 10 mg/ml (33 mM) in quercetin at a pH of about 7.8.

[14] = test system: LEW responder splenocytes activated with Con A; assay: Con A stimulated proliferation of spleen cells of treated Lewis rats; format: cell-based, rat; details: LNS 0694 i.p. before FK 506 1 mg/kg i.v.
Description: as §1, §2
Varying numbers of responder cells are mixed with a constant number of stimulators (105) in 96-well, U-bottom cell culture plates to give a final responder:stimulator (R:S) ratio of 10:1, 5:1, 1:1 and 0.5:1 in 200 μl CM. Control wells for each cell suspension contained 10^5 responders alone in medium and 105 pooled, irradiated stimulators alone in medium (separate wells). For a positive proliferative response, each responder (10^5) is treated with 2.5 μg/ml Con A.
Cultures are incubated at 37±° 1 C. for 72±2 hours in 5±1% CO2 humidified air. Each well is pulsed with 1 μCi tritiated thymidine for 18±2 hours before automatic harvesting and analysis in a liquid scintillation counter.

[15] = Pharmacokinetics of FK 506 in male Lewis rats, whole blood drug levels; format: in vivo; details: FK 506 1 mg/kg i.v. with i.p. LNS 0694 at different doses
Description: as §3
Treatment: Lewis rats are treated as described in example 3. Subsets of 3 Lewis rats per group are used for blood sampling at each time point (Groups 2-5) as described in the table below.
Plasma Blood Sample Collection: Whole blood is collected from the retro-orbital sinus under 60:40 CO2:O2 anesthesia using EDTA as the anticoagulant. Sample collection is performed at 9 time points: 5, 15, and 30 min and 1, 2, 4, 6, 8, & 24 hr after administration of FK 506. Three samples are collected from each rat per group (Groups 2-5). The first 2 samples are collected under anesthesia, after which the animal regains consciousness and is retained until the next collection interval. […]
Drug levels are determined in collected whole blood samples using a bioanalytical method developed to detect parent drug levels.
Results: The pharmacokinetics parameters of FK 506 are determined in male Lewis rats after 1 mg/kg i.v. administration alone or in combination with i.p, administration of different doses of LNS 0694 (See FIG. 15).

C=CC[C@@H]1/C=C(\C)C[C@H](C)C[C@H](OC)[C@H]2O[C@@](O)(C(=O)C(=O)N3CCCC[C@H]3C(=O)O[C@H](/C(C)=C/[C@@H]3CC[C@@H](O)[C@H](OC)C3)[C@H](C)[C@@H](O)CC1=O)[C@H](C)C[C@@H]2OC (relative stereo) [tacrolimus, [3S-[3R[E(1S*,3S*,4S*)], 4S*,5R*,8S*,9E,12R*,14R*,15S*,16R*,18S*,19S*,26aR*]]-,6,8,11,12,13,14,15,16,17,18,19,24,25,26,26a-hexadecahydro-5,19-dihydroxy-3-[2-(4-hydroxy-3-methoxycyclohexyl)-1-methylethenyl]-14,16-dimethoxy-4,10,12,18-tetramethyl-8-(2-propenyl)-15,19-epoxy-3H-pyrido[2,1-c][1,4]oxaazacyclotricosine-1,7,20,21(4H,23H)-tetrone, monohydrate]
lymphocyte proliferation in MLR (thymidine incorporation) ([1]; FK 506 1 mg/kg i.v., spleens collected at 4 hr): inhibited | inhibitory effect on MLR by R:S ratio ([1]; FK 506 1 mg/kg i.v., R:S ratios 0.5:1, 1:1, 5:1): stronger inhibitory effect at lower R:S ratios | response of spleen cells to LPS (proliferation) [2]: inhibits LPS-induced proliferation in a dose dependent manner | patients with trough concentrations within the pre-defined target range [3]: 74-86% | glucose-stimulated insulin secretion, of the control value [4]: 32±5% | incidence of posttransplant diabetes mellitus (PTDM) ([5]; Japan): 31.4% | incidence of posttransplant diabetes mellitus (PTDM) ([5]; western countries): 10-30% | potency relative to CsA [6]: 50-100 fold | proportion of patients reporting more than one adverse event [7]: 99.8% | percent change of glucose blood level ([8]; rat, in vivo, 0.5 mg/kg): greater increase | response of spleen cells to Con A (proliferation) [9]: inhibits Con A-induced proliferation in a dose dependent manner

O=c1c(O)c(-c2ccc(O)c(O)c2)oc2cc(O)cc(O)c12 [quercetin]
response of spleen cells to LPS (proliferation) [2]: no significant effect | serum half-life [10]: 19 to 25 h | concentration of quercetin in the solution [11]: about 9.2 mg/mL | stability in solution ([12]; above pH 5): degradation | stability in solution ([12]; below pH 3): stable | stability of solution to precipitation [13]: stable for more than two weeks without precipitation | FK506 induced hyperglycemia ([8]; FK506 0.5 mg/kg i.v. daily, quercetin i.p. 30 minutes before, FIG. 2): decreases | increase of glucose blood levels by FK506 ([8]; FK506 0.5 mg/kg, quercetin 10, 25 and 200 mg/kg): reduced | increase of blood glucose (percent change) ([8]; FK506 2 mg/kg + quercetin 10 mg/kg, day 9): 60% | increase of blood glucose (percent change) ([8]; FK506 2 mg/kg + quercetin 25 mg/kg, day 9): 90% | percent change of blood glucose ([8]; FK506 2 mg/kg + quercetin 200 mg/kg, day 9): reduced to the levels similar to rats treated with vehicle alone | FK506 induced hyperglycemia ([8]; FK506 2 mg/kg i.v. daily, quercetin i.p. 30 minutes before, FIG. 1): decreases | increase in glucose blood levels by FK506 ([8]; FK506 2 mg/kg, day 5, quercetin 10, 25 and 200 mg/kg): reduced | increase of glucose blood levels by FK506 ([8]; FK506 2 mg/kg, day 9, quercetin 10, 25 and 200 mg/kg): reduced | FK506 induced hyperglycemia ([8]; conclusion of Example 4, both FK506 doses): decreases | tacrolimus induced cell suppression in vitro ([9]; Con A, tacrolimus 10^−8.2 and 10^−8.5 M with increasing doses of quercetin, high cell concentration): does not impair | effect of tacrolimus on cells ([9]; conclusion of Example 6): does not alter | response of spleen cells to Con A (proliferation) [9]: no significant effect

O=c1c(O)c(-c2ccc(O)c(O)c2)oc2cc(O)cc(O)c12 [LNS 0694]
FK 506 inhibitory effect on lymphocyte proliferation in MLR ([1]; LNS 0694 50, 150, 300 mg/kg i.p. 30 minutes before FK 506 1 mg/kg i.v.): increases FK 506 inhibitory effect in a dose-dependent manner | FK 506 inhibitory effect on lymphocyte proliferation after Con A [14]: increases FK 506 inhibitory effect | peripheral bioavailability of FK506 [15]: increases the peripheral bioavailability of FK506 in a dose dependent manner
